# Measured values: US20110059869A1, “Method for Increasing Enzymatic Reactivity” (RIKEN, priority 2008, published 2011)
# Experiments:
# Type in all cases: biochemical
# [1] = system: E. coli DNA ligase, E. coli DNA polymerase I, E. coli RNaseH; assay: Double-stranded cDNA synthesis (Gubler-Hoffman method) on cDNA/RNA hybrid adsorbed to streptavidin beads; conditions: 0.6 M trehalose, 3 hours at 16° C.
# Procedure: RNA was reverse transcribed with Unique oligo-dT having various restriction enzyme sites. The cDNA/RNA hybrids obtained were used while still adsorbed to the beads to conduct a double-strand synthesis reaction by the Gubler-Hoffman method as set forth below.
# A 15 ug quantity of 5′ end biotin-labeled primer (Seq. ID No. 3) for reverse transcription was employed for 12 ug of total RNA (mouse embryo, 17.5, female). Reverse transcription reaction solution (1× GC buffer (Takara), 0.3 mM dNTP mix, saturated sorbitol/trehalose solution 30 uL, M-MLV 3,000 units) was added α[32P]dGTP was added, and the mixture was reacted for 30 minutes at 42° C., 10 minutes at 50° C., and 10 minutes at 56° C. Following reaction with proteinase K, the mixture was precipitated from CTAB/urea and redissolved in 7 M Gu-HCl. EtOH precipitation was then conducted. […]
# Streptavidin beads on which was adsorbed cDNA/RNA hybrid were washed once with double-stranded synthesis-use reaction buffer ([…], Invitrogen). […] The mixture was washed three times with 1× binding buffer and measured with a liquid scintillation counter. The synthesis rate of double-stranded cDNA and the yield were calculated (Scheme 1).
# restriction enzyme PstI [2] = assay: PstI cleavage reactions with different distances from bead or plate surface to the DNA cleavage site; conditions: 0.6 M trehalose vs none; cleavage site 20 bp, 50 bp, 100 bp from surface; beads and plates
# Procedure: Three biotin-labeled DNA fragments I, II, and III (Seq. ID Nos. 4 to 6, Scheme 4) were cleaved at their respective restriction enzyme PstI site and the size of the DNA fragments released was examined. Paramagnetic streptavidin beads were washed with the accessory 1× binding buffer and recovered with a magnetic stand to remove the supernatant. They were then suspended in identical buffer. To each of the three types of biotin-labeled DNA fragments (500 ng) was admixed an equal volume of 2× binding buffer, the bead solution was added, and the mixture was stirred gently for 15 minutes with top to bottom inversion and rotation to induce adsorption. The beads to which the sample had adsorbed were recovered with the magnetic stand, washed three times with 1× binding buffer, and washed one more time with 1× PstI buffer. […] The precipitate of DNA fragments obtained was dissolved in 1× TE (pH 7.5) and analyzed with Bioanalyzer DNA 1000 assay (Agilent Technologies).
# Three biotin-labeled DNA fragments I, II, and III (Seq. ID Nos. 4 to 6, Scheme 4) were cleaved at their respective restriction enzyme PstI site and the size of the DNA fragments released was examined. […] The precipitate of DNA fragments obtained was dissolved in 1× TE (pH 7.5) and analyzed with Bioanalyzer DNA 1000 assay (Agilent Technologies). […]
# restriction enzyme PstI [3] = assay: PstI cleavage of DNA fragments I, II, III in a uniform liquid phase system; conditions: 0.6 M trehalose present or not, three hours at 37° C.
# Procedure: In the same manner as in 7 above, the three biotin-labeled DNA fractions I, II, and III (Seq. ID Nos. 4 to 6) were each cleaved at the restriction enzyme PstI site and the DNA fragments of various sizes that were released were detected. Two types of reaction solution (1× PstI buffer, 1× BSA, restriction enzyme 40 units) were prepared: a trehalose (+) system with a final D(+)-trehalose concentration of 0.6 M, and a trehalose (−) system to which no trehalose was added. Each of the reaction solutions was admixed and reacted for three hours at 37° C. Cleavage was conducted with restriction enzyme. The DNA fragments of various sizes that were released were reacted with proteinase K, treated with phenol chloroform, and precipitated from ethanol. The precipitate of DNA fragments obtained was dissolved in 1× TE (pH 7.5) and analyzed with Bioanalyzer DNA 1000 assay (Agilent Technologies) (FIGS. 15 and 16).
smiles,measurement,setting,value
"OC[C@H]1O[C@H](O[C@H]2O[C@H](CO)[C@@H](O)[C@H](O)[C@H]2O)[C@H](O)[C@@H](O)[C@@H]1O [trehalose, D(+)-trehalose]","double-stranded cDNA synthesis rate, increase over trehalose (−) conditions",[1],1.25 fold
same,yield of DNA released by cleavage,restriction enzyme PstI [2],increase
same,quantity of the released DNA fragments recovered,restriction enzyme PstI [3],no change
